Read-outs that look alike come from different tables or passages of the source. Blank lines part the entries; values can stand above or below the molecule they belong to.
Assays:
cyclooxygenase = target: T1, cyclooxygenase (Rattus norvegicus, UniProt Q63921); experiment: Inhibition of cyclooxygenase derived from rat basophilic leukemia (RBL-1) cells, formation of product PDG2 (C1); type: biochemical; settings: RBL-1 homogenate; for IC50: C1, PDG2; for inhibition at 1 µM: dose of 1 μM, 5 min preincubation, 15 min incubation at 37° C, read-out: In vitro % Inhibition, C1 (cyclooxygenase product formation)
T1 construct: Single cell suspensions of RBL-1 cells are homogenized to obtain the microsomal fraction containing lipoxygenase and cyclooxygenase; endogenous in cells; host or cells: RBL-1 (rat basophilic leukemia) cells, homogenate / microsomal fraction
T1 sequence (Q63921 27-602): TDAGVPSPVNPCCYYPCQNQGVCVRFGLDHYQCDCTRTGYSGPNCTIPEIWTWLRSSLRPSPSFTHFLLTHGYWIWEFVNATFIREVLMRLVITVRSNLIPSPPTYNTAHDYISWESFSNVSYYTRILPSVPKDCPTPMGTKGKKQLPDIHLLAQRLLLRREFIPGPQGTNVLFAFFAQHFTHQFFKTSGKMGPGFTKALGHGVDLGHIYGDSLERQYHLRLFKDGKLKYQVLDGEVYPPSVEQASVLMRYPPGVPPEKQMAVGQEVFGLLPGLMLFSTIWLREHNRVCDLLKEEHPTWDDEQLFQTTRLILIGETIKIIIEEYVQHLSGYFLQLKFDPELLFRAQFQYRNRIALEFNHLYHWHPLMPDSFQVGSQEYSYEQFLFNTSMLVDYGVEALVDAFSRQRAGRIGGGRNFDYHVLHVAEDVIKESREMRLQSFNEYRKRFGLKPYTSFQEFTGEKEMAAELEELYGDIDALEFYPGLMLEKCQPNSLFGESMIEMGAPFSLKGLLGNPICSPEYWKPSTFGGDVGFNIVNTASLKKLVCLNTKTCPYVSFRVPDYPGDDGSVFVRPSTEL
Experimental: (§1) The primary screening test used is a determination of the inhibition of lipoxygenase and cyclooxygenase derived from rat basophilic leukemia (RBL-1) cells. The test was carried out according to the following procedure:
(§2) Single cell suspensions of RBL-1 cells are homogenized to obtain the microsomal fraction containing lipoxygenase and cyclooxygenase. Test compounds are added to the enzyme-containing homogenate for a 5 min preincubation period at 37° C. prior to the addition of ^14 C-arachidonic acid substrate. Following incubation at 37° C. for 15 min, the reaction is stopped by the addition of 2M formic acid and the enzyme-substrate products are extracted into chloroform. An aliquot of the extract is evaporated to dryness, reconstituted in ether to 1/10 original volume, spotted on thin layer chromatography plates and chromatographed. The peak areas of radioactivity representing the products are located by scanning the plates. The quantity of products formed is estimated by measuring the height of the radioactivity peaks observed on the chromatographic scans. Alternatively, the areas of radioactivity are scraped from the plate and the ^14 C quantitated by scintillation counting.

lipoxygenase = target: T2, lipoxygenase (Rattus norvegicus, UniProt P12527); experiment: Inhibition of lipoxygenase derived from rat basophilic leukemia (RBL-1) cells, formation of products 5,12-di-HETE (L1) and 5-HETE (L2); type: biochemical
T2 construct: Single cell suspensions of RBL-1 cells are homogenized to obtain the microsomal fraction containing lipoxygenase and cyclooxygenase; endogenous in cells; host or cells: RBL-1 (rat basophilic leukemia) cells, homogenate / microsomal fraction
T2 sequence (P12527 1-673): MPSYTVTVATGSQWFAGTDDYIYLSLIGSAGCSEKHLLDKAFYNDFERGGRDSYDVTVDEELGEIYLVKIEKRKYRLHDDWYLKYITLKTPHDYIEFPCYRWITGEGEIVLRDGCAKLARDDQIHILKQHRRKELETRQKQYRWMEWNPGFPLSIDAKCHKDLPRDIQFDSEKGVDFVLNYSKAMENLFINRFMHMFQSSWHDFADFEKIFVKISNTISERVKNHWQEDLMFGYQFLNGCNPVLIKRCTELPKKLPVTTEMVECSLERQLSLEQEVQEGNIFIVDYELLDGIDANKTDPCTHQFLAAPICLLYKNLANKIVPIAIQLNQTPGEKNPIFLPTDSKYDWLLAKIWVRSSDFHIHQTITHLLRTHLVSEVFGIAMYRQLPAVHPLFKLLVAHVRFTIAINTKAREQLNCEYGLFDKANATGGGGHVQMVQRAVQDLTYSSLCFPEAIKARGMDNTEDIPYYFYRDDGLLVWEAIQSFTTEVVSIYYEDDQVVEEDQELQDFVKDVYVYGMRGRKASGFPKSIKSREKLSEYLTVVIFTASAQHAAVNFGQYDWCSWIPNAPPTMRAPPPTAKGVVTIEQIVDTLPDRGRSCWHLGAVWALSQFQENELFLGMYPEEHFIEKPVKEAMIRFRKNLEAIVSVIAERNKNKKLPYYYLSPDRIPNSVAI
Experimental: as §1, §2

[1] = tested on: STS-A component of immunologically induced bronchoconstriction; experiment: Effect on the STS-A component of immunologically induced bronchoconstriction in guinea pigs; type: in vivo; settings: 4 hrs., at 1 mg/kg orally, indomethacin + chlorpheniramine medicated, antigen challenge
Experimental: The test was carried out according to the following procedure:
Two weeks after immunization with egg albumin, guinea pigs are prepared for bronchoconstriction determination. One hour prior to antigen challenge, each animal is dosed orally with indomethacin and chlorpheniramine. Animals are anesthetized with sodium pentobarbital, the trachea cannulated and the animal artifically respired. Arachidonic acid is administered intravenously prior to antigen challenge. The resulting bronchoconstriction is recorded by the standard lung overflow procedure and the peak increase in intratracheal pressure (mm Hg) over a 10 minute observation period is recorded. Compounds are evaluated for their ability to prevent the increased intratracheal pressure in an experimental group of animals as compared to the medicated (indomethacin+chlorpheniramine+arachidonic acid) control group. The results are expressed in terms of percent inhibition or as ED50 values (efffective dose in 50% of the animals).

[2] = IC50, L1 (lipoxygenase product 5,12-di-HETE formation), L1, 5,12-di-HETE, RBL-1 homogenate
[3] = IC50, L2 (lipoxygenase product 5-HETE formation), L2, 5-HETE, RBL-1 homogenate
[4] = read-out: In vitro % Inhibition, L1 (lipoxygenase product 5,12-di-HETE formation)
[5] = read-out: In vitro % Inhibition, L2 (lipoxygenase product 5-HETE formation)

Structure (SMILES): CCOC(=O)c1ccccc1Nc1ccc(O)c(Cl)c1 [Example 5c, Ethyl 2-(3-chloro-4-hydroxyphenylamino)benzoate]
- IC50 (cyclooxygenase): > 1000 nM
- inhibition at 1 µM (cyclooxygenase): 26%
- IC50 (lipoxygenase; [2]): 670 nM
- IC50 (lipoxygenase; [3]): 300 nM
- inhibition at 1 µM (lipoxygenase; [4]): 90%
- inhibition at 1 µM (lipoxygenase; [5]): 99%

Structure (SMILES): CCOC(=O)c1ccccc1Nc1ccc(O)cc1 [Example 2b, Ethyl 2-(4-hydroxyphenylamino)benzoate]
- IC50 (cyclooxygenase): > 1000 nM
- inhibition at 1 µM (cyclooxygenase): 19%
- IC50 (lipoxygenase; [2]): 340 nM
- IC50 (lipoxygenase; [3]): 250 nM
- inhibition at 1 µM (lipoxygenase; [4]): 77%
- inhibition at 1 µM (lipoxygenase; [5]): 93%
- In vivo Guinea Pig % inhib. (increased intratracheal pressure, bronchoconstriction) [1]: 38%

Structure (SMILES): CCOC(=O)c1ccccc1Nc1ccccc1O [Example 1d, Ethyl 2-(2-hydroxyphenylamino)benzoate]
- IC50 (cyclooxygenase): 320 nM
- inhibition at 1 µM (cyclooxygenase): 34%
- IC50 (lipoxygenase; [2]): 160 nM
- IC50 (lipoxygenase; [3]): 100 nM
- inhibition at 1 µM (lipoxygenase; [4]): 95%
- inhibition at 1 µM (lipoxygenase; [5]): 98%

- inhibition at 1 µM (cyclooxygenase): 0%
- inhibition at 1 µM (lipoxygenase; L1, 5,12-di-HETE, dose of 1 μM, RBL-1 homogenate, 5 min preincubation, 15 min incubation at 37° C, read-out: In vitro % Inhibition, L1 (lipoxygenase product 5,12-di-HETE formation)): 60%
- inhibition at 1 µM (lipoxygenase; L2, 5-HETE, dose of 1 μM, RBL-1 homogenate, 5 min preincubation, 15 min incubation at 37° C, read-out: In vitro % Inhibition, L2 (lipoxygenase product 5-HETE formation)): 76%
Structure (SMILES): CCOC(=O)c1ccccc1Nc1ccc(O)cc1C [Example 4c, Ethyl 2-(4-hydroxy-2-methylphenylamino)benzoate]

Structure (SMILES): CCOC(=O)c1cc(OC)ccc1Nc1ccc(O)cc1 [Example 3d, Ethyl 2-(4-hydroxyphenylamino)-5-methoxybenzoate]
- IC50 (cyclooxygenase): > 1000 nM
- inhibition at 1 µM (cyclooxygenase): 18%
- IC50 (lipoxygenase; [2]): 110 nM
- IC50 (lipoxygenase; [3]): 100 nM
- inhibition at 1 µM (lipoxygenase; [4]): 90%
- inhibition at 1 µM (lipoxygenase; [5]): 91%
- In vivo Guinea Pig % inhib. (increased intratracheal pressure, bronchoconstriction) [1]: 42%

— patent US4515980A, “Substituted aminobenzoates, their preparation and use” (Sterling Drug Inc., priority 1983, dated 1985)
